# From patent US5510255A, “Plant fatty acid synthases” (priority 1993, dated 1996)
# What was measured:
# synthase I [1] = conditions: cited from earlier work
# synthase I [2] = system: T1, synthase I; assay: Cerulenin sensitivity of cellulose phosphate flow-through fraction; type: biochemical, S. oleracea; conditions: 0.25 h, 5 μM cerulenin, 15 minutes, room temperature, read-out: reduction of decanoyl-ACP activity
# T1 construct: from tissue; host or cells: S. oleracea leaf, cellulose phosphate flow-through
# Method: (§1) Each enzyme source is incubated with 5 μM cerulenin for 15 minutes at room temperature before being assayed with each of the acyl-ACP substrates. After incubation with cerulenin, the decanoyl-ACP activity is reduced 99% in the cellulose phosphate flow-through fraction and only 69% in the synthase II fraction. The palmitoyl-ACP activity in the synthase II fraction is not inhibited by the cerulenin treatment.
# type-I synthase = biological target: T2, type-I synthase (Ricinus communis, UniProt Q41135); assay: biochemical; parameters: species or system R. communis
# T2 construct: mature plastid protein
# T2 sequence (Q41135 43-469): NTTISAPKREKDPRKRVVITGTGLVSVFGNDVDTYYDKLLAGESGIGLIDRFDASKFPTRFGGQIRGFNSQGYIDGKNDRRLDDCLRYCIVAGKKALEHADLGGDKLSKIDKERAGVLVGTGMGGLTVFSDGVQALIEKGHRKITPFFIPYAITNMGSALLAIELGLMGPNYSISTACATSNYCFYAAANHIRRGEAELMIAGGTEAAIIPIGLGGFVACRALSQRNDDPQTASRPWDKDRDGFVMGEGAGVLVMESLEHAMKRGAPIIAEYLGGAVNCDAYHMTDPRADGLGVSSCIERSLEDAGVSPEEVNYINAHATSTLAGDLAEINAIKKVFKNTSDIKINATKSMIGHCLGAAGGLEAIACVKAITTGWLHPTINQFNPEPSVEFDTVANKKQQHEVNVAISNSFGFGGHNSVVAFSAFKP
# type-II synthase = biological target: T3, type-II synthase (Ricinus communis, UniProt Q41134); type: biochemical, R. communis
# T3 construct: mature plastid protein
# T3 sequence (Q41134 117-535): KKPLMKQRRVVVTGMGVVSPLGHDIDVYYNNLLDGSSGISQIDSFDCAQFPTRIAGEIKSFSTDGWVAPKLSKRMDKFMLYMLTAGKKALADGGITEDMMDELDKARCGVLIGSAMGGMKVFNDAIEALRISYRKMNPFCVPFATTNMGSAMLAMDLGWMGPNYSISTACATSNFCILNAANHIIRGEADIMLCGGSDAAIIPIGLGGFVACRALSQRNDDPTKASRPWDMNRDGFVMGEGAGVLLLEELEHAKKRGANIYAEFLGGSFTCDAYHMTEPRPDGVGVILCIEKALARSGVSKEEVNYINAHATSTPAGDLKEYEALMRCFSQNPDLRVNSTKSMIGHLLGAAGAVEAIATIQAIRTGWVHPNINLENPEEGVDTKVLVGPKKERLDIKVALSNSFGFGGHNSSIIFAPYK
# synthase II [3] = conditions: cited from earlier work
# Synthase I [4] = biological target: T4, Synthase I (Arabidopsis thaliana, UniProt P52410); assay: Inhibition with cerulenin; type: biochemical
# T4 sequence (P52410 47-473): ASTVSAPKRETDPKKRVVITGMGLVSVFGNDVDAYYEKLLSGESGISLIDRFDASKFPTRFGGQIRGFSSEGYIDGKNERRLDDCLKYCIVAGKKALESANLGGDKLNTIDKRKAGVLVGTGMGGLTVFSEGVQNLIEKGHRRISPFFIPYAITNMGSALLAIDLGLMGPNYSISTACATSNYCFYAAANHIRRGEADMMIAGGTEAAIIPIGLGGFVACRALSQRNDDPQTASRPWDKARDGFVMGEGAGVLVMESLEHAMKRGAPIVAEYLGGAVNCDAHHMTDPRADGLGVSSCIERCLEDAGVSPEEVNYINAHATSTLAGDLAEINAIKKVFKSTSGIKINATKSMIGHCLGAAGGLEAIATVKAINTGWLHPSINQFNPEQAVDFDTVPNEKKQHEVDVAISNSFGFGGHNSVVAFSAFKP
# Description: (§2) Other plant synthases may also find applicability by this invention, including synthase III type activities. Differences between synthases I, II, and III are also observed in inhibition with cerulenin. […] In FIG. 1, a time course assay of cerulenin effects on synthase I and synthase II activities is provided.
# synthase II [5] = biological target: T5, synthase II (Arabidopsis thaliana, UniProt Q9C9P4); assay: Inhibition with cerulenin; type: biochemical
# T5 sequence (Q9C9P4 104-541): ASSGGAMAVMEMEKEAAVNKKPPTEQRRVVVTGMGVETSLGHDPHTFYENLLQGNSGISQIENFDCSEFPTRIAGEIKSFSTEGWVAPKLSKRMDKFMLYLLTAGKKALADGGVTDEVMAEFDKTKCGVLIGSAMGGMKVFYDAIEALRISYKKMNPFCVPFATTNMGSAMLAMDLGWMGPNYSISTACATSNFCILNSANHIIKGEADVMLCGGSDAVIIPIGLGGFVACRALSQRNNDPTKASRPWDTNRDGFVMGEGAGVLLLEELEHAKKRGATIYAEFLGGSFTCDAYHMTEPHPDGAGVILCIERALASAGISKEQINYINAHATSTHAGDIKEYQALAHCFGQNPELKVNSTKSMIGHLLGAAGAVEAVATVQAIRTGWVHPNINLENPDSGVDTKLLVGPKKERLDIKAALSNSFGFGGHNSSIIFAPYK
# Description: as §2
# synthase III = biological target: T6, synthase III (Arabidopsis thaliana, UniProt P49243); assay: Inhibition with cerulenin; type: biochemical
# T6 sequence (P49243 44-404): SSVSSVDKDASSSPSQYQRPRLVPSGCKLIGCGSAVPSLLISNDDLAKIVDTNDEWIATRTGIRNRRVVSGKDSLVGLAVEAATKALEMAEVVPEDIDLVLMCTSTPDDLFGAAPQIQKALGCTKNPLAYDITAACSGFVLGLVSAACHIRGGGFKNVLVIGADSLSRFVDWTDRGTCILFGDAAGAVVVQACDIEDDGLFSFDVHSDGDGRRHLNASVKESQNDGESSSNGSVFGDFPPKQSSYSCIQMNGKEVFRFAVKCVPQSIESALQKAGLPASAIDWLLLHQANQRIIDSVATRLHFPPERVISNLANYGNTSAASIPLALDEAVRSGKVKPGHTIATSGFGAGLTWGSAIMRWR
# Description: as §2
# synthase II [6] = assay: Cerulenin sensitivity of synthase II fraction from cellulose phosphate; type: biochemical, S. oleracea; conditions: 5 μM cerulenin, 15 minutes, room temperature
# Method: as §1
# [7] = cerulenin concentrations above 50 μM
smiles,measurement,setting,value
C/C=C/C/C=C/CCC(=O)[C@H]1O[C@H]1C(N)=O [cerulenin],reaction with active site of synthase I,synthase I [1]; 5 μM cerulenin,reacts readily
same,reaction with synthase I,synthase I [1]; [7],react readily
same,inhibition at 5 µM,synthase I [2],99%
same,inactivation of type-I synthase,type-I synthase,completely inactivated
same,inhibition at 5 µM,type-I synthase; read-out: inhibition of activity with C10:0-ACP,> 80%
same,sensitivity of activity with C16:0-ACP (type-II synthase) to cerulenin,type-II synthase,virtually insensitive
same,reaction with active site of synthase II,synthase II [3]; 5 μM cerulenin,not synthase II
same,reaction with synthase II,synthase II [3]; [7],react readily
same,sensitivity of synthase I to cerulenin,Synthase I [4],most sensitive
same,sensitivity of synthase II to cerulenin,synthase II [5],less sensitive
same,sensitivity of synthase III to cerulenin,synthase III,least sensitive
same,inhibition of palmitoyl-ACP activity,synthase II [6],not inhibited
same,reduction of decanoyl-ACP activity,synthase II [6],69%
